pIC50: −log10 of the molar value.
Biological target: T1, Dual specificity protein phosphatase 6 (Rattus norvegicus, UniProt Q64346)
T1 sequence (Q64346 whole entry): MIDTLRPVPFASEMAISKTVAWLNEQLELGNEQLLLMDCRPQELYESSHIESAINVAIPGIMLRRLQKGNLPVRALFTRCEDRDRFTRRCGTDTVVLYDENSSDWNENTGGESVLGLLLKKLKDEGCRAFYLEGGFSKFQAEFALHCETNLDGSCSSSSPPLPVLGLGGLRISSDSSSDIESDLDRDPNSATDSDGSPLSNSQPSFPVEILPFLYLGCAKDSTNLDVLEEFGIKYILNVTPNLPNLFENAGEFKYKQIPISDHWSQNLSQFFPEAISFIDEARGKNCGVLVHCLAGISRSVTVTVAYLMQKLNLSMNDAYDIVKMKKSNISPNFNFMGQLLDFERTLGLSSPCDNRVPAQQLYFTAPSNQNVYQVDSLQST
Experiment: inhibition of rat DUSP6 enzyme activity – biochemical, in vitro, primary screen (AID 425)

SMILES	pIC50
Cc1ccc(NC(=O)CN2C(=O)C(=NNC(=O)c3cc([N+](=O)[O-])ccc3O)c3ccccc32)cc1	4.51
CCOc1cc(CN=Nc2nc(O)c(CC(=O)O)s2)ccc1OCc1ccc(Cl)cc1Cl [2-[2-[(N''E)-N''-[4-(2,4-dichlorobenzyl)oxy-3-ethoxy-benzylidene]hydrazino]-4-keto-2-thiazolin-5-yl]acetic acid]	4.59
O=NCc1cccn1-c1cccc(C(=O)O)c1 [3-[2-(hydroximinomethyl)pyrrol-1-yl]benzoic acid]	5.00
CCN(CC)CCCN1C(=O)C(=O)C(C(=O)c2ccccc2)C1c1ccccn1 (stereo unspecified) [(4E)-1-[3-(diethylamino)propyl]-4-[hydroxy(phenyl)methylidene]-5-(2-pyridinyl)pyrrolidine-2,3-dione]	4.00
Cc1cc(=O)oc2cc(OCC(=O)N/N=C/C3C=C([N+](=O)[O-])C=CC3=O)ccc12 (stereo unspecified) [MLS000588734]	4.62
COC1=CC=CC(/C=N/NC(=O)c2cc3cc([N+](=O)[O-])ccc3s2)C1=O (stereo unspecified) [SMR000237814]	3.94
